Data published in patent US20100184815A1 (priority 2008, published 2010).

How the values were obtained:
Assay type in all cases: cell-based
[1] = target: T1, Gal-4 hPPARα (Homo sapiens, UniProt Q07869); test: Gal4-hPPARα transient transfection reporter assay in Cos cells; details: luciferase reporter, 24 hours with compound, scale 1-5, read-out: Gal-4 hPPAR α EC50 (scaled number)
T1 construct: Plasmids pGal4-hPPARα, pGal4-hPPARγ, pGal4-hPPARδ and pG5-TK-pGL3 were constructed as previously described by Staels, Bart, et al., Nature 1998 Jun; 25
T1 sequence (Q07869 200-468 limits assumed): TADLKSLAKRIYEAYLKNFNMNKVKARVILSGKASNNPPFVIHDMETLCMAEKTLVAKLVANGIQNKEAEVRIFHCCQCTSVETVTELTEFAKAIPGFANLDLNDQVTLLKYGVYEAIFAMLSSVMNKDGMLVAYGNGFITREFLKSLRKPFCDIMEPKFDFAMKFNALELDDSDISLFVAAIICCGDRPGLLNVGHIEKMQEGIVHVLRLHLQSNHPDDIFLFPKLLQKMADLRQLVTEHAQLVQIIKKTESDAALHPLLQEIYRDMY
Description: (§1) Construction of recombinant plasmids. Plasmids pGal4-hPPARα, pGal4-hPPARγ, pGal4-hPPARδ and pG5-TK-pGL3 were constructed as previously described by Staels, Bart, et al., Nature 1998 Jun. 25; 393 (6687): 790-793, by Staels (Institut Pasteur de Lille, FR).
(§2) Transient transfection assays. Cos cells were seeded in 60-mm dishes at a density of 5.5×10^5 cells/dish in Dulbecco's modified Eagle's medium (DMEM) supplemented with 10% fetal calf serum (FCS) and incubated at 37° C. for 24 hours before transfection. Cells were transfected in Opti-MEM (Gibco; Invitrogen, Carlsbad, Calif.) without FCS for 3 hours at 37° C., using polyethylenimine, with reporter and expression plasmids. The plasmid pBluescript (Stratagene, La Jolla, Calif.) was used as carrier DNA to set the final amount of DNA to 5.5 μg/dish. The pCMV-b-galactosidase expression plasmid was cotransfected as a control for transfection efficiency. Transfection was stopped by the addition of DMEM supplemented with 10% FCS, and cells were then incubated at 37° C. After 16 hours, cells were trypsinized and seeded in 96-well plates at the density of 2×10^4 cells/well and incubated for 6 hours in 10% FCS-containing DMEM. Cells were then incubated for 24 hours in DMEM containing 0.2% FCS and increasing concentrations of the compound tested or vehicle (DMSO). At the end of the experiment, cells were washed once with ice-cold PBS, lysed and the luciferase and b-galactosidase assays were performed in a luminometer and spectrophotomer. Transfection efficiencies were normalized with the b-galactosidase activity assay. Half-maximal effective concentration (EC50) was estimated using Prism software (GraphPad). All transfection experiments were performed at least three times.
(§3) In the following tables, proprietary compound EC50 values for hPPAR α, β, δ and γ are shown. The EC50 value is the concentration of a drug that induces a response halfway between the baseline and maximum, and is commonly used as a measure of drug potency. EC50 values are reported on a scale of 1 through 5, wherein the value scale is defined for each receptor as follows: […]

[2] = target: T2, Gal-4 hPPARβ/δ (Homo sapiens, UniProt Q03181); test: Gal4-hPPARδ transient transfection reporter assay in Cos cells; details: luciferase reporter, 24 hours with compound, scale 1-5, read-out: Gal-4 hPPAR β/δ EC50 (scaled number)
T2 construct: Plasmids pGal4-hPPARα, pGal4-hPPARγ, pGal4-hPPARδ and pG5-TK-pGL3 were constructed as previously described by Staels, Bart, et al., Nature 1998 Jun; 25
T2 sequence (Q03181 171-441 limits assumed): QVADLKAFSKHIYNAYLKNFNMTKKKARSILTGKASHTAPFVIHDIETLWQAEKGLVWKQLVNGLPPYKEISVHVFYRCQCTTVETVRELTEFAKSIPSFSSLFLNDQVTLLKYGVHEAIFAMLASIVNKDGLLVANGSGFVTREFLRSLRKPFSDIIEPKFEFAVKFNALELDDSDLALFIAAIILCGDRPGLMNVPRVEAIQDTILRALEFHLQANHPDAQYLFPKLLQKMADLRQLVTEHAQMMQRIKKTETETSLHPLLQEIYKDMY
Description: as §1, §2, §3

[3] = target: T3, Gal-4 hPPARγ (Homo sapiens, UniProt P37231); test: Gal4-hPPARγ transient transfection reporter assay in Cos cells; details: luciferase reporter, 24 hours with compound, scale 1-5, read-out: Gal-4 hPPAR γ EC50 (scaled number)
T3 construct: Plasmids pGal4-hPPARα, pGal4-hPPARγ, pGal4-hPPARδ and pG5-TK-pGL3 were constructed as previously described by Staels, Bart, et al., Nature 1998 Jun; 25
T3 sequence (P37231 238-505 limits assumed): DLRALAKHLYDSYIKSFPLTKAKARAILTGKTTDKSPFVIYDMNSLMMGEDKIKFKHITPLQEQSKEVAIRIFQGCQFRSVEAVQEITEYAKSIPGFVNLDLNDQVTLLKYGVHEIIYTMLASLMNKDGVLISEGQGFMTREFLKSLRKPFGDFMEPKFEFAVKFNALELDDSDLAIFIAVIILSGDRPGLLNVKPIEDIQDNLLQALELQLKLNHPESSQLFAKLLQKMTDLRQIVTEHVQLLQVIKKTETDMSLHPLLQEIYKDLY
Description: as §1, §2, §3

With `CC(C)(Sc1ccc(C(=O)OCc2cn(Cc3ccc(C(F)(F)F)cc3)nn2)cc1)C(=O)O` [Compound 102, 2-methyl-2-(4-(((1-(4-(trifluoromethyl)benzyl)-1H-1,2,3-triazol-4-yl)methoxy)carbonyl)phenylthio)propanoic acid] the EC50 [1] was 51 to 200 nM, the EC50 [2] was > 1000 nM and the EC50 [3] was > 1000 nM.
`CCCCCCCn1c(C(C)OC(=O)c2ccc(SC(C)(C)C(=O)O)cc2)nn(Cc2ccc(C)cc2)c1=O` (stereo not drawn) [Compound 264, 4-(1-Carboxy-1-methyl-ethylsulfanyl)-benzoic acid 1-[4-heptyl-1-(4-methyl-benzyl)-5-oxo-4,5-dihydro-1H-1,2,4-triazol-3-yl]-ethyl ester] was tested, and the EC50 [1] was < 1 nM, the EC50 [2] was > 1000 nM and the EC50 [3] was 51 to 200 nM.
For `CCCn1c(COC(=O)c2ccc(SC(C)(C)C(=O)O)cc2)nn(Cc2cc(F)cc(F)c2)c1=O` [Compound 218, 2-(4-(((1-(3,5-difluorobenzyl)-5-oxo-4-propyl-4,5-dihydro-1H-1,2,4-triazol-3-yl)methoxy)carbonyl)phenylthio)-2-methylpropanoic acid], the EC50 [1] was 51 to 200 nM, the EC50 [2] was > 1000 nM and the EC50 [3] was > 1000 nM.
`CCCCCCn1c(COC(=O)c2ccc(SC(C)(C)C(=O)O)cc2)nn(Cc2ccc(C(OC)(C(F)(F)F)C(F)(F)F)cc2)c1=O` [Compound 201, 2-(4-(((1-(4-(1,1,1,3,3,3-hexafluoro-2-methoxypropan-2-yl)benzyl)-4-hexyl-5-oxo-4,5-dihydro-1H-1,2,4-triazol-3-yl)methoxy)carbonyl)phenylthio)-2-methylpropanoic acid] was tested, and the EC50 [1] was 1 to 50 nM, the EC50 [2] was > 1000 nM and the EC50 [3] was > 1000 nM.
For `CCn1c(COC(=O)c2ccc(SC(C)(C)C(=O)O)cc2)nn(Cc2ccc(C)cc2)c1=O` [Compound 193, 2-(4-(((4-ethyl-1-(4-methylbenzyl)-5-oxo-4,5-dihydro-1H-1,2,4-triazol-3-yl)methoxy)carbonyl)phenylthio)-2-methylpropanoic acid], the EC50 [1] was 51 to 200 nM, the EC50 [2] was > 1000 nM and the EC50 [3] was > 1000 nM.
With `CCCn1c(COC(=O)c2ccc(SC(C)(C)C(=O)O)cc2)nn(Cc2cccc(C(F)(F)F)c2)c1=O` [Compound 176, 2-methyl-2-(4-(((5-oxo-4-propyl-1-(3-(trifluoromethyl)benzyl)-4,5-dihydro-1H-1,2,4-triazol-3-yl)methoxy)carbonyl)phenylthio)propanoic acid] the EC50 [1] was 51 to 200 nM, the EC50 [2] was > 1000 nM and the EC50 [3] was > 1000 nM.
In the case of `CCCCCCn1c(COC(=O)c2ccc(OC(C)(C)C(=O)O)cc2)nn(Cc2ccc(C(F)(C(F)(F)F)C(F)(F)F)cc2)c1=O` [Compound 204, 2-(4-(((4-hexyl-5-oxo-1-(4-(perfluoropropan-2-yl)benzyl)-4,5-dihydro-1H-1,2,4-triazol-3-yl)methoxy)carbonyl)phenoxy)-2-methylpropanoic acid], the EC50 [1] is reported as 51 to 200 nM, the EC50 [2] is reported as > 1000 nM and the EC50 [3] is reported as > 1000 nM.
With `CC(C)(Sc1ccc(C(=O)OCc2cnn(Cc3ccc4ccccc4c3)c2)cc1)C(=O)O` [Compound 26, 2-methyl-2-(4-(((1-(naphthalen-2-ylmethyl)-1H-pyrazol-4-yl)methoxy)carbonyl)phenylthio)propanoic acid] the EC50 [1] was 1 to 50 nM, the EC50 [2] was > 1000 nM and the EC50 [3] was > 1000 nM.
With `CCCn1c(COC(=O)c2ccc(OC(C)(C)C(=O)O)cc2)nn(Cc2ccc(SC(F)(F)F)cc2)c1=O` [Compound 210, 2-methyl-2-(4-(((5-oxo-4-propyl-1-(4-(trifluoromethylthio)benzyl)-4,5-dihydro-1H-1,2,4-triazol-3-yl)methoxy)carbonyl)phenoxy)propanoic acid] the EC50 [1] was 201 to 999 nM, the EC50 [2] was > 1000 nM and the EC50 [3] was > 1000 nM.
`CC(C)(Sc1ccc(C(=O)OCc2cnn(Cc3ccc(OC(F)(F)F)cc3)c2)cc1)C(=O)O` [Compound 32, 2-methyl-2-(4-(((1-(4-(trifluoromethoxy)benzyl)-1H-pyrazol-4-yl)methoxy)carbonyl)phenylthio)propanoic acid] was tested, and the EC50 [1] was 1 to 50 nM, the EC50 [2] was > 1000 nM and the EC50 [3] was > 1000 nM.
In the case of `C[C@@H](OC(=O)c1ccc(SC(C)(C)C(=O)O)cc1)c1cn(Cc2ccc(SC(F)(F)F)cc2)nn1` [Compound 136, 4-(1-Carboxy-1-methyl-ethylsulfanyl)-benzoic acid (R)-1-[1-(4-trifluoromethylsulfanyl-benzyl)-1H-1,2,3-triazol-4-yl]-ethyl ester], the EC50 [1] is reported as 1 to 50 nM, the EC50 [2] is reported as > 1000 nM and the EC50 [3] is reported as 51 to 200 nM.
`Cc1ccc(-n2cc(COC(=O)c3ccc(OC(C)(C)C(=O)O)cc3)c(-c3ccccc3)n2)cc1` [Compound 17, 2-methyl-2-(4-(((3-phenyl-1-p-tolyl-1H-pyrazol-4-yl)methoxy)carbonyl)phenoxy)propanoic acid] showed an EC50 [1] of 51 to 200 nM, an EC50 [2] of 1 to 50 nM and an EC50 [3] of 201 to 999 nM.
`C[C@@H](OC(=O)c1ccc(SC(C)(C)C(=O)O)cc1)c1cn(Cc2ccc(OC(F)(F)F)cc2)nn1` [Compound 137, 4-(1-Carboxy-1-methyl-ethylsulfanyl)-benzoic acid (R)-1-[1-(4-trifluoromethoxy-benzyl)-1H-1,2,3-triazol-4-yl]-ethyl ester] was tested, and the EC50 [1] was 51 to 200 nM, the EC50 [2] was > 1000 nM and the EC50 [3] was > 1000 nM.
For `CCCCCCn1c(COC(=O)c2ccc(SC(C)(C)C(=O)O)cc2)nn(Cc2ccc(C(F)(C(F)(F)F)C(F)(F)F)cc2)c1=O` [Compound 203, 2-(4-(((4-hexyl-5-oxo-1-(4-(perfluoropropan-2-yl)benzyl)-4,5-dihydro-1H-1,2,4-triazol-3-yl)methoxy)carbonyl)phenylthio)-2-methylpropanoic acid], the EC50 [1] was 1 to 50 nM, the EC50 [2] was > 1000 nM and the EC50 [3] was > 1000 nM.
With `CCCn1c(COC(=O)c2ccc(SC(C)(C)C(=O)O)cc2)nn(Cc2ccc(Br)cc2)c1=O` [Compound 164, 2-(4-(((1-(4-bromobenzyl)-5-oxo-4-propyl-4,5-dihydro-1H-1,2,4-triazol-3-yl)methoxy)carbonyl)phenylthio)-2-methylpropanoic acid] the EC50 [1] was 1 to 50 nM, the EC50 [2] was > 1000 nM and the EC50 [3] was > 1000 nM.
With `CC(C)(Oc1ccc(C(=O)OCc2cnn(Cc3ccc4c(c3)C(C)(C)CCC4(C)C)c2)cc1)C(=O)O` [Compound 28] the EC50 [1] was 201 to 999 nM, the EC50 [2] was > 1000 nM and the EC50 [3] was > 1000 nM.
`CCCn1c(COC(=O)c2ccc(SC(C)(C)C(=O)O)cc2)nn(Cc2cc(C(F)(F)F)cc(C(F)(F)F)c2)c1=O` [Compound 177, 2-(4-(((1-(3,5-bis(trifluoromethyl)benzyl)-5-oxo-4-propyl-4,5-dihydro-1H-1,2,4-triazol-3-yl)methoxy)carbonyl)phenylthio)-2-methylpropanoic acid] was tested, and the EC50 [1] was 1 to 50 nM, the EC50 [2] was > 1000 nM and the EC50 [3] was 201 to 999 nM.
In the case of `CC(C)(Sc1ccc(C(=O)OCCc2cn(Cc3ccc(C(C)(C)C)cc3)nn2)cc1)C(=O)O` [Compound 144, 4-(1-Carboxy-1-methyl-ethylsulfanyl)-benzoic acid 2-[1-(4-tert-butyl-benzyl)-1H-1,2,3-triazol-4-yl]-ethyl ester], the EC50 [1] is reported as 51 to 200 nM, the EC50 [2] is reported as > 1000 nM and the EC50 [3] is reported as > 1000 nM.
